pIC50: −log10 of the molar value.
Tested on: 695427-040-R-J1-PDC complex spheroid viability
Test: Anticancer human tumor 695427-040-R-J1-PDC patient-derived colon adenocarcinoma cell line growth inhibition [POLQ]
Conditions: for pIC50: curve of first compound; for viability, T/C: stronger effect = lower value; active = viability on the fitted dose curve at most 10% of control; inactive = the rest
Description: Multicellular complex tumor spheroid response to Polymerase (POL) inhibitors (novobiocin, ART-558, RP6685) in combination with a variety of drugs and investigational agents in selected tumor cell lines
The POL inhibitors (novobiocin, ART-558, and RP6685) were evaluated both individually and in combination with standard of care and investigational anticancer small molecules within a complex spheroid model of solid tumors. . Complex spheroids include a stromal component modeled by human endothelial cells (HUVEC) and fibroblasts modeled by human mesenchymal stem cells (MSCs). The concentration ranges selected for each drug and investigational agent were based upon clinically achievable concentrations if the clinical Cmax of the agent was known.
Compounds. The drugs and investigational agents: novobiocin (NSC847541), ART-558 (NSC835418), RP-6685 (NSC848927), peposertib (NSC802822), ceralasertib (NSC780249), elimusertib (NSC800525), camonsertib (NSC841442), AZD-1390 (NSC803789), olaparib (NSC753686), talazoparib (NSC767125), rucaparib (NSC756644), sotorasib (NSC818433), MRTX-1133 (NSC836407), SN-38 (NSC673596), topotecan (NSC609699), epotoside (NSC141540), doxorubicin (NSC123127), gemcitabine (NSC613327), 5-fluorouracil (NSC19893), paclitaxel (NSC125973), vemurafenib (NSC761431), MSA-2 (NSC828583), SN-011 (NSC837082), adavosertib (NSC754352), prexasertib (NSC758257), carboplatin (NSC241240) and oxaliplatin (NSC266046), were obtained from the National Cancer Institute (NCI) Developmental Therapeutics Program Chemical Repository (21). The FDA-approved anticancer drug set is available from the Developmental Therapeutics Program at https://dtp.cancer.gov/organization/dscb/obtaining/. […] The stock solutions were prepared in dimethyl sulfoxide (DMSO, Sigma-Aldrich, St. Louis, MO, cat. D2650), except for the platinum compounds which were prepared in saline (Quality Biological, Gaithersburg, MD, cat. 114-055-101), at 800-fold the tested concentration and stored at -70 degrees C prior to their use. All drugs and investigational agents were tested over a range starting from a high concentration at or near the clinical Cmax and decreasing in half-log increments. If the clinical Cmax for an agent had not been determined, the highest concentration tested was 10 microM, except for SN-38, which was tested at a high concentration of 1 microM.
Cell Culture. All cells were maintained in an incubator at 37 degrees C and 5% CO2 with 95% humidity. The PDC lines were cultured according to standard operating procedures established by the NCI PDMR (https://pdmr.cancer.gov). Table 3 of the manuscript, lists the cell lines along with the number of the three cell types plated to form the mct-spheroids and media for tumor cell growth. After thawing, all PDC lines, except 997537-175-T-J1-PDC and 415267-285-R-J2-PDC, were cultured in Matrigel-coated flasks prepared with a working solution of 1X Ham's F-12 nutrient mix, without supplementation (Thermo Fisher Scientific, cat. 11765054), 100 U/mL penicillin-streptomycin (Thermo Fisher Scientific, cat. 15140122), and 2.5% Matrigel (Corning Inc., Corning, NY, cat. 354248) for the first three passages. The two PDC lines 997537-175-T-J1-PDC and 415267-285-R-J2-PDC were cultured on uncoated flasks. The 857933-349-R-J2-PDC line was cultured in 6C/Colon 1B media containing advanced DMEM/F-12 (Thermo Fisher Scientific, cat. 12634028), 10 mM HEPES (Thermo Fisher Scientific, cat. 15630080), 1X GlutaMAX supplement (Thermo Fisher Scientific, cat. 35050061), 0.1 mg/mL primocin (InvivoGen, San Diego, CA, cat. ant-pm-2), 10% defined fetal bovine serum, heat inactivated (HyClone Laboratories Inc., Logan, UT, cat. SH30070.03HI), 50% L-WRN conditioned media (ATCC, cat. CRL-3276), 1.25 mM N-Acetyl-L-cysteine (Sigma-Aldrich, cat. A9165), 10 mM nicotinamide (Sigma-Aldrich, cat. N0636), 1X B-27 supplement (Thermo Fisher Scientific, cat. 17504044), 1X N-2 supplement (Thermo Fisher Scientific, cat. […]
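Also: spheroids exposed to compounds for seven days.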

CC1COCCN1c1cc(C2(S(C)(=N)=O)CC2)nc(-c2ccnc3[nH]ccc23)n1 (configuration not stated) + Nc1ccc(C#CCN(C(=O)Cc2ncc(C(F)(F)F)cc2C(F)(F)F)c2ccc(F)cc2)nn1
< 5.00: pIC50 (second compound 0.0316 µM) | pIC50 (second compound 0.1 µM) | pIC50 (second compound 0.316 µM) | pIC50 (second compound 1 µM) | pIC50 (second compound 3.16 µM) | pIC50 (second compound 10 µM)
inactive: viability, T/C (second compound 0.0316 µM, first compound 0.0316 µM) 110% | viability, T/C (second compound 0.0316 µM, first compound 0.1 µM) 103% | viability, T/C (second compound 0.0316 µM, first compound 0.316 µM) 99.4% | viability, T/C (second compound 0.0316 µM, first compound 1 µM) 106% | viability, T/C (second compound 0.0316 µM, first compound 3.16 µM) 99.6% | viability, T/C (second compound 0.0316 µM, first compound 10 µM) 96.2% | viability, T/C (second compound 0.1 µM, first compound 0.0316 µM) 108% | viability, T/C (second compound 0.1 µM, first compound 0.1 µM) 100% | viability, T/C (second compound 0.1 µM, first compound 0.316 µM) 97.4% | viability, T/C (second compound 0.1 µM, first compound 1 µM) 98.1% | viability, T/C (second compound 0.1 µM, first compound 3.16 µM) 112% | viability, T/C (second compound 0.1 µM, first compound 10 µM) 94.5% | viability, T/C (second compound 0.316 µM, first compound 0.0316 µM) 96.8% | viability, T/C (second compound 0.316 µM, first compound 0.1 µM) 104% | viability, T/C (second compound 0.316 µM, first compound 0.316 µM) 93.9% | viability, T/C (second compound 0.316 µM, first compound 1 µM) 104% | viability, T/C (second compound 0.316 µM, first compound 3.16 µM) 99.9% | viability, T/C (second compound 0.316 µM, first compound 10 µM) 82.2% | viability, T/C (second compound 1 µM, first compound 0.0316 µM) 102% | viability, T/C (second compound 1 µM, first compound 0.1 µM) 101% | viability, T/C (second compound 1 µM, first compound 0.316 µM) 102% | viability, T/C (second compound 1 µM, first compound 1 µM) 102% | viability, T/C (second compound 1 µM, first compound 3.16 µM) 102% | viability, T/C (second compound 1 µM, first compound 10 µM) 86.6% | viability, T/C (second compound 3.16 µM, first compound 0.0316 µM) 100% | viability, T/C (second compound 3.16 µM, first compound 0.1 µM) 95.1% | viability, T/C (second compound 3.16 µM, first compound 0.316 µM) 99.3% | viability, T/C (second compound 3.16 µM, first compound 1 µM) 101% | viability, T/C (second compound 3.16 µM, first compound 3.16 µM) 95.4% | viability, T/C (second compound 3.16 µM, first compound 10 µM) 88.2% | viability, T/C (second compound 10 µM, first compound 0.0316 µM) 104% | viability, T/C (second compound 10 µM, first compound 0.1 µM) 97.9% | viability, T/C (second compound 10 µM, first compound 0.316 µM) 95% | viability, T/C (second compound 10 µM, first compound 1 µM) 96.7% | viability, T/C (second compound 10 µM, first compound 3.16 µM) 91.6% | viability, T/C (second compound 10 µM, first compound 10 µM) 74.9%

Reference: PubChem BioAssay AID1963840 (Molecular Pharmacology Branch, DTP, NCI, 2024)
